Source: patent US20210323977A1, “PYRROLIDINYL AMIDE COMPOUNDS FOR THE TREATMENT OF AUTOIMMUNE DISEASE” (Hoffmann-La Roche Inc., priority 2018, published 2021)

Molecular target: T1, human TLR7 (Homo sapiens, UniProt Q9NYK1)
T1 sequence (Q9NYK1 27-1049): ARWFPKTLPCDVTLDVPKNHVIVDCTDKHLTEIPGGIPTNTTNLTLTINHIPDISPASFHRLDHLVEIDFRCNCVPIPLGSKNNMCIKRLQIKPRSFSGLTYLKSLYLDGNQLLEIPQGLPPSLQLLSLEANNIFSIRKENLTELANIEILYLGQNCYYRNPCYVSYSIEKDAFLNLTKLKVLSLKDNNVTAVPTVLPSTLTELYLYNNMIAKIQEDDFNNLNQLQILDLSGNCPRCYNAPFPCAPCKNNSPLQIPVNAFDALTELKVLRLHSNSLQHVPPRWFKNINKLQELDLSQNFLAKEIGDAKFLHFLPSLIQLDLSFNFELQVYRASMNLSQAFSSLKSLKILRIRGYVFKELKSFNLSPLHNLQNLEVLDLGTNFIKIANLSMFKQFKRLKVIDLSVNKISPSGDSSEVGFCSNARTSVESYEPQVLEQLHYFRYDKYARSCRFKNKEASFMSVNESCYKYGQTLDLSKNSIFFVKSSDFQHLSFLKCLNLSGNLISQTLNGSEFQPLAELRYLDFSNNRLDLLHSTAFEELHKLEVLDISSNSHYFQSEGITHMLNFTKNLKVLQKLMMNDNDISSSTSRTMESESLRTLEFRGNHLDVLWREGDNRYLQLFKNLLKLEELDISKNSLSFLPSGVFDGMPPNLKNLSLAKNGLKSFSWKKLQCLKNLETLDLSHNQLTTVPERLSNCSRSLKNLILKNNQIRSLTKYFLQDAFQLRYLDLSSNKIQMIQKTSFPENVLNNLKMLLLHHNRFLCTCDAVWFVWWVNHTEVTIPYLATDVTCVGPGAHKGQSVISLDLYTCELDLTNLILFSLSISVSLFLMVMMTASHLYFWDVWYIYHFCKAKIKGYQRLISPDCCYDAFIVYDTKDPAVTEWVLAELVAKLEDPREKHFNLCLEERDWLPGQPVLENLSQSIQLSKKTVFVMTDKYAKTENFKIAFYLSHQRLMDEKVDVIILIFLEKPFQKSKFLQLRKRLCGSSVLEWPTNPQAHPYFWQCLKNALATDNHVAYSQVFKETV
Assay: HEK293-Blue-hTLR-7 cells assay
Format: cell-based
Conditions: HEK293-Blue-hTLR7 cells, SEAP reporter, R848 stimulation, 20 hrs
Description: HEK293-Blue-hTLR-7 Cells Assay:
A stable HEK293-Blue-hTLR-7 cell line was purchased from InvivoGen (Cat. #: hkb-htlr7, San Diego, Calif., USA). These cells were originally designed for studying the stimulation of human TLR7 by monitoring the activation of NF-κB. A SEAP (secreted embryonic alkaline phosphatase) reporter gene was placed under the control of the IFN-β minimal promoter fused to five NF-κB and AP-1-binding sites. The SEAP was induced by activating NF-κB and AP-1 via stimulating HEK-Blue hTLR7 cells with TLR7 ligands. Therefore the reporter expression was declined by TLR7 antagonist under the stimulation of a ligand, such as R848 (Resiquimod), for incubation of 20 hrs. The cell culture supernatant SEAP reporter activity was determined using QUANTI-Blue™ kit (Cat. #: rep-qb1, Invivogen, San Diego, Ca, USA) at a wavelength of 640 nm, a detection medium that turns purple or blue in the presence of alkaline phosphatase.
HEK293-Blue-hTLR7 cells were incubated at a density of 250,000˜450,000 cells/mL in a volume of 170 μL in a 96-well plate in Dulbecco's Modified Eagle's medium (DMEM) containing 4.5 g/L glucose, 50 U/mL penicillin, […], […], 2 mM L-glutamine, 10% (v/v) heat-inactivated fetal bovine serum with addition of 20 sL test compound in a serial dilution in the presence of final DMSO at 1% and 10 μL of 20 uM R848 in above DMEM, perform incubation under 37° C. in a CO2 incubator for 20 hrs. Then 20 μL of the supernatant from each well was incubated with 180 sL Quanti-blue substrate solution at 37° C. for 2 hrs and the absorbance was read at 620-655 nm using a spectrophotometer. The signalling pathway that TLR7 activation leads to downstream NF-κB activation has been widely accepted, and therefore similar reporter assay was modified for evaluating TLR7 antagonist.

Structure (SMILES) | IC50
CN1CCC(NC(=O)[C@@H]2CN(c3ccc(C#N)c4ncccc34)C[C@H]2C(F)F)CC1 (relative stereo) [Example 40, Trans-1-(8-cyano-5-quinolyl)-4-(difluoromethyl)-N-(1-methyl-4-piperidyl)pyrrolidine-3-carboxamide] | 79 nM
CC[C@@H]1CN(c2ccc(C#N)c3ncccc23)C[C@H]1C(=O)NC1CCN(C)CC1 (relative stereo) [Example 29, Trans-1-(8-cyano-5-quinolyl)-4-ethyl-N-(1-methyl-4-piperidyl)pyrrolidine-3-carboxamide] | 40 nM
O=C(NC1C2CCCC1CNC2)C1CN(c2ccc(C(F)(F)F)c3nccnc23)CC12CC2 (centres unmarked) [Example 8, N-(3-azabicyclo[3.3.1]nonan-9-yl)-5-[8-(trifluoromethyl)quinoxalin-5-yl]-5-azaspiro[2.4]heptane-7-carboxamide] | 10 nM
O=C(NC1CC2CCCC(C1)N2)C1CN(c2ccc(C(F)(F)F)c3nccnc23)CC12CC2 (centres unmarked) [Example 10, N-(9-azabicyclo[3.3.1]nonan-3-yl)-5-[8-(trifluoromethyl)quinoxalin-5-yl]-5-azaspiro[2.4]heptane-7-carboxamide] | 12 nM
C[C@H]1CN(c2ccc(C(F)(F)F)c3nccnc23)C[C@@H]1C(=O)NC1CCN(C)CC1 [Example 5, (3R,4R)-4-methyl-N-(1-methyl-4-piperidyl)-1-[8-(trifluoromethyl)quinoxalin-5-yl]pyrrolidine-3-carboxamide] | 8 nM
N#Cc1ccc(N2CC(C(=O)NC3CCCNCC3)C(C(F)(F)F)C2)c2cccnc12 (single isomer, unassigned) [Example 30A, N-(azepan-4-yl)-1-(8-cyano-5-quinolyl)-4-(trifluoromethyl)pyrrolidine-3-carboxamide] | 41 nM
CN1CCC(NC(=O)C2CN(c3ccc(C#N)c4nccnc34)CC23CC3)CC1 (single isomer, unassigned) [Example 7B, 5-(8-Cyanoquinoxalin-5-yl)-N-(1-methyl-4-piperidyl)-5-azaspiro[2.4]heptane-7-carboxamide] | 6 nM
C[C@H]1CN(c2ccc(C#N)c3nccnc23)C[C@@H]1C(=O)NC1CCN(C)CC1 [Example 3, (3R,4R)-1-(8-cyanoquinoxalin-5-yl)-4-methyl-N-(1-methyl-4-piperidyl)pyrrolidine-3-carboxamide] | 4 nM
NC1CC2(C1)CC(NC(=O)C1CN(c3ccc(C(F)(F)F)c4nccnc34)CC13CC3)C2 (centres unmarked) [Example 22, N-(6-aminospiro[3.3]heptan-2-yl)-5-[8-(trifluoromethyl)quinoxalin-5-yl]-5-azaspiro[2.4]heptane-7-carboxamide] | 28 nM
O=C(NC1C2CCC1CNC2)C1CN(c2ccc(C(F)(F)F)c3nccnc23)CC12CC2 (centres unmarked) [Example 12, N-(3-azabicyclo[3.2.1]octan-8-yl)-5-[8-(trifluoromethyl)quinoxalin-5-yl]-5-azaspiro[2.4]heptane-7-carboxamide] | 18 nM
CN1CCCC(CNC(=O)C2CN(c3ccc(C#N)c4ncccc34)CC23CC3)C1 (centres unmarked) [Example 51, 5-(8-Cyano-5-quinolyl)-N-[(1-methyl-3-piperidyl)methyl]-5-azaspiro[2.4]heptane-7-carboxamide] | 201 nM
CN1CC(NC(=O)C2CN(c3ccc(C(F)(F)F)c4nccnc34)CC23CC3)C2(CC2)C1 (centres unmarked) [Example 20, N-(5-methyl-5-azaspiro[2.4]heptan-7-yl)-5-[8-(trifluoromethyl)quinoxalin-5-yl]-5-azaspiro[2.4]heptane-7-carboxamide] | 25 nM
NC1CC(CNC(=O)C2CN(c3ccc(C(F)(F)F)c4nccnc34)CC23CC3)C1 (centres unmarked) [Example 31, N-[(3-aminocyclobutyl)methyl]-5-[8-(trifluoromethyl)quinoxalin-5-yl]-5-azaspiro[2.4]heptane-7-carboxamide] | 41 nM
C[C@@H]1CN(c2ccc(C(F)(F)F)c3nccnc23)C[C@H]1C(=O)NC1CCN(C)CC1 [Example 25, (3S,4S)-4-Methyl-N-(1-methyl-4-piperidyl)-1-[8-(trifluoromethyl)quinoxalin-5-yl]pyrrolidine-3-carboxamide] | 33 nM
